Like-named read-outs stand apart in the source and are kept apart here.
Assays:
[1] = target: acetylcholinesterase (AchE) (Homo sapiens, UniProt P22303); assay: Acetylcholinesterase activity, in vitro colorimetric Ellman method; format: biochemical; details: AchE 0.22 U/ml, ATCl 1 mM, 20 min
Source text: The aim of this assay is to compare acetylcholinesterase (AchE) activity in the presence of the composition according to the invention, with a safranal/cannabidiol (CBD) ratio of 0.03, with acetylcholinesterase activity in the presence of safranal or CBD alone.
AchE activity was monitored and measured in vitro by colorimetric reaction using the Ellman method. Acetylthiocholine (ATCl) is degraded to thiocholine and acetic acid by AChE. The thiocholine then reacts with the dithiobisnitrobenzoic ion (DTNB) and the resulting ion (TNB) gives a yellow coloration. In a 96-well plate, the following amounts were deposited in each well: 55 μl buffer (Tris-HCl 50 mM), 75 μl DTNB (5 mM), 25 μl AchE (0.22 U/ml), 25 μl test sample (buffer or safranal (1.2 μg/ml), or CBD (40 μg/ml), or safranal (1.2 μg/ml)+CBD (40 μg/ml).
At the last moment, 25 μL of ATCl (1 mM) was added to initiate the reaction. The absorbance was then monitored at 405 nM for 20 min. For each well, the absorbance values over time (Ax) are normalized relative to the first absorbance measurement (AT0) according to the following formula: Normalized absorbance (An)=Ax−AT0. The percentage of AchE inhibition was determined by comparing the slopes of the curves (in the linear part) against the control according to the following equation [Math 1]. […]

[2] = tested on: anxiety symptoms in healthy adults under stress; details: CBD alone without THC, cited from earlier work

Sequence of acetylcholinesterase (AchE) (P22303 32-614, species assumed): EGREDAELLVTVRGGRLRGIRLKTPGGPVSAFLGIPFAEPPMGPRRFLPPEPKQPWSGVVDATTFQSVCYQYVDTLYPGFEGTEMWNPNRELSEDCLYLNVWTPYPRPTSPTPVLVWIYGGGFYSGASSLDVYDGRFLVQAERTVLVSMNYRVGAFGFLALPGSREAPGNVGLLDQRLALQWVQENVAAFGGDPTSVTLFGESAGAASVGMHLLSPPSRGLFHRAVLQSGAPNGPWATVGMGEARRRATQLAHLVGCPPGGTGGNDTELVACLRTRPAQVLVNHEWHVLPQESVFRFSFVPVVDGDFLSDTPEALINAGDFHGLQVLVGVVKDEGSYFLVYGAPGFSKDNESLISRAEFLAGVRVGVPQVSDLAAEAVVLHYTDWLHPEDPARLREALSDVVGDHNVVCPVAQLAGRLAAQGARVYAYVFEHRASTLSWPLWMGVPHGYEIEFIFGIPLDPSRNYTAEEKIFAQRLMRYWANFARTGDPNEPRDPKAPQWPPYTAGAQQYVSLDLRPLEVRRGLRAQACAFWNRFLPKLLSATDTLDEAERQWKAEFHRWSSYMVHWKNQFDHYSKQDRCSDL

SMILES | inhibition at 40 µg/mL ([1]; CBD 40 μg/ml test sample, read-out: decrease in AchE activity (percentage of AchE inhibition relative to control)) | effect on anxiety symptoms ([2]; dose 300 mg) | effect on anxiety symptoms ([2]; higher dose 900 mg) | effect on anxiety symptoms ([2]; lower dose 100 mg) | AchE activity compared with the control ([1]; safranal 1.2 μg/ml test sample)
C=C(C)[C@@H]1CCC(C)=C[C@H]1c1c(O)cc(CCCCC)cc1O [CBD, 2-[(1R,6R)-6-isopropenyl-3-methylcyclohex-2-en-1-yl]-5-pentylbenzene-1,3-diol] | 69.8% | reducing anxiety symptoms | no effect | no effect | 
CC1=C(C=O)C(C)(C)CC=C1 [safranal] |  |  |  |  | unchanged
